The test system of assay [1] is TMPRSS2. The assay is described as follows: TMPRSS2 mRNA by Taqman qPCR in human alveolar cells. The format is cell-based. The following applies: in the presence of IL1β. Here is the method: Real-Time PCR using Taqman probes and SYBR green assay. cDNA was produced using lug of total RNA extracted by RNAeasy (Qiagen, Hilden Germany, cat #74104). The first strand of cDNA was produced using iScript™ Reverse Transcription Supermix for RT-qPCR (BioRad cat #1708840). The quantification of Sirt 1, RNF-146, Bcl2, BcL-xl was performed using SYBRgreen assay with primers designed in house (Table 1) using SsoAdvanced Universal SYBR Green Supermix (Biorad cat #1725270). The quantification of ACE2 and TMPRSS2 mRNA was performed using Taqman probes (Biorad cat #qHsaCEP0051563 & qHsaCIP0028919 respectively) labeled with FAM and standardized using PGK1 probe labeled with HEX (Biorad cat #qHsaCEP0050174).
(In general: In qPCR the cycle at which signal appears reflects the starting amount.)

In assay [2] the test system is ACE2. The assay is described as follows: Rat cornea alkali burn: corneal RNA-seq, Ace2 gene expression. It is filed as in vivo. Conditions: rat cornea after alkali burn; eye drops 3 times/day for 14 days; RNA-seq day 14. Here is the method: (§1) The rats were anesthetized by intraperitoneal injection of Ketamine (50-100 mg/kg) plus xylazine (5-10 mg/kg). A 4 mm diameter filter paper soaked in 1 N NaOH was placed on the central cornea of the right eye for 45 seconds, and then the eye was thoroughly washed with […] of saline. After injury, the rats were randomly divided into five treatment groups: vehicle; lipoxin A4 (LXA4) from Cayman Chemical (Ann Arbor, MI, USA); R,R Resolvin D6 isomer (RvD6i), R,R neuroprotection D (NPD1), and elovanoid (ELV)-N32. All lipid solutions were prepared at the final concentration of […] using PBS with the minimal contamination of ethanol by evaporating the ethanol and immediately dissolve the lipids in PBS, then vortex well for 2 min. Topical administration (20 μl) was done 3×/day for 14 days. The experiments were double-blinded with the lipid mediators coded during the whole experiments. At the end of the study, when all data was collected, the code was opened.
(§2) Injured corneas (n=5/condition) were harvested and homogenized with TRIzol (Thermo Fisher Scientific) on ice with a glass Dounce homogenizer. RNA sequencing was performed as described^14. Briefly, after mRNA extraction and determination of purity, 8 ng of total RNA was reverse transcribed, and total cDNAs were amplified using ISPCR primer, and the library was made with the Nextera XT DNA library preparation kit (Illumina, San Diego, CA, USA). The libraries were pooled with the same molarity and sequenced using the NextSeq 500/550 High Output Kit v2 (75 cycles, Illumina). After demultiplexing, RNA-seq data were aligned to the Rattus Norvegicus reference genome (.ensembl.org/pub/release-98/fasta/rattus_norvegicus/dna/) using the Subread package v2.0.1 alignment function39. The BAM files for sequencing data alignment were counted using featureCounts function of Subread tool^40 using the macOS Catalina. The raw count data were subjected to differential gene expression analysis using DESeq2 package for R^41 with the vehicle group as reference. The adjusted p-values were named as the false discover rate (FDR).

In assay [3] the test system is injured rat cornea. The assay is described as follows: Rat cornea alkali burn: corneal RNA-seq, cytokine storm, NFkB/inflammation, senescence, integrin and protease genes. It is filed as in vivo. Here is the method:
as §1, §2

The test system of assay [4] is ACE2. Description: HCEC challenged with IFNγ: Ace2 gene expression. The format is cell-based, human. Conditions: IFNγ 100 ng/ml. The source says: (§3) All experiments with human corneal epithelial cells were approved by the Institutional Review Board of LSUHNO and conducted in accordance with NIH guidelines. HCEC were kept frozen in the laboratory at passage 2544. Cells were maintained in keratinocyte growth (KGM) medium containing the keratinocyte basal medium (KBM) (Lonza: CC-3101) supplemented with bovine pituitary extract (BPE), hEGF, Insulin, Hydrocortisone and Gentamicin Sulfate-Amphotericin (GA-1000) (Lonza, Cat. CC-4131). For all experiments, cells were seeded at 30,000 cells/cm2.
(§4) For screening the stimulation of receptor ACE2 by cytokines, the HCEC were cultured with KGM until 50-60% confluence. Then, changed to KBM containing IL-1β, -2, -6 and 8, IFN-α, -ε, and -γ or TNFα at 1, 10 or 100 ng/ml. The cells were harvested after 6 hours and analyze for the gene expression of Ace2. In other experiments, HCEC were stimulated with IFNγ, and thereafter, lipid mediators were added. For the Alexa 594-conjugated RBD binding, IFNγ was used as a cytokine trigger. At 12 hours after cytokine exposure and lipid mediator treatments, […] of labeled RBD was added to the medium. The evaluation of RBD binding was conducted 24 hours after.
Quantitative PCR was performed with the Biomark HD system (Fluidigm, San Francisco, CA, USA). […]

Assay [5] concerns Cdkn2a (p16INK4a). Description: HCEC challenged with IFNγ: Cdkn2a gene expression. It is filed as cell-based, human. The following applies: IFNγ 100 ng/ml.
Description: as §3, §4
Quantitative PCR was performed with the Biomark HD system (Fluidigm, San Francisco, CA, USA). Briefly, 200 ng of RNA was reverse-transcribed using iScript Reverse Transcription Supermix (Bio-Rad), and the cDNA was pre-amplified using the PreAmp Master Mix (PN 100-5580; Fluidigm). The cDNA was then subjected to Exonuclease I treatment and diluted 5 times in TE Buffer. The qPCR reaction mixture and primer reaction mixture were made and loaded into the Biomark 96.96 IFC™ (Integrated Fluidic Circuit). The enzyme reaction was mixed using Juno™ Controller (Fluidigm) and run using the cycling program of (i) 70° C. for 40 minutes followed by 60° C. for 30 seconds, (ii) hot start for 1 minute at 95° C., (iii) 30 cycles of denaturation at 96° C. for 5 seconds, and annealing at 60° C. for 20 seconds, and (iv) melting curves between 60° C. and 95° C. with 1° C. increments/3 seconds. The Ct value of target genes was normalized to the house-keeping genes Gapdh, Hprt1, and Tfrc before normalized to the vehicle group. Relative fold changes from the ΔΔCT calculation was used to make the graph.

Assay [6] concerns Alexa 594-RBD. The assay is described as follows: HCEC challenged with IFNγ: Alexa 594-RBD binding (unbiased imaging, Imaris). The format is cell-based, human. Conditions: IFNγ 100 ng/ml and lipid mediators 200 nM for 12 h, images 24 h after RBD. On the procedure:
as §4
Twenty-four hours after Alexa 594-RBD was added to the HCEC, the cells were washed with PBS (3×/5 min) and fixed with 4% paraformaldehyde for 30 minutes at RT. The HCEC were washed 2× with PBS and stained with Hoechst 33342 Solution (ThermoFisher Scientific, Cat. 62249) for 30 minutes at RT. Next, the HCEC were washed 2× with PBS before imaging. For unbiased data collection, 7 designated areas were defined in each well (FIG. 63) and captured with an Olympus FV3000 confocal laser scanning microscopy under “Multi Area Time Lapse” (MATL) mode. All images were acquired with the same parameters and Z-section range, converted and inputted in the Imaris software version 9.5.1. The threshold for the control images was defined by the HCEC without Alexa 594-conjugated RBD of S protein and using it as a threshold filter for the Imaris batch image processing function. The sum of total intensity for each image was used to evaluate the binding efficiency.

Where [7] appears, read: rat cornea, RNA-seq 14 days after injury.

Entries after “also recorded” stand apart in the source; their conditions may differ.

As to `CC/C=C\CC(O)\C=C/C=C/C=C/C(O)C/C=C\C/C=C\CCCCCCCCCCCCC(=O)O` [ELV-N32, (14Z,17Z,20R,21E,23E,25Z,27S,29Z)-20,27-dihydroxydo-triaconta-14,17,21,23,25,29-hexaenoic acid], in assay [1], the TMPRSS2 expression entry was “decreased”. Also, the “Ace2 gene expression levels” value in assay [2] was “decrease”. Further, the Furin expression result in assay [3] (cornea injury model (FIG. 57)) is “remarkably decreases”. In assay [3] (setting [7]), the “51 injury-upregulated genes (cytokines, SASP, NFkB inflammatory)” value is recorded as “most are inhibited”; the “Il6 and Vegfa expression” value is on record as “reduced”; the “integrin gene expression (Itga5 and Itgb 1)” value is reported as “significantly decreased; also recorded: decrease”; the “transcriptomic profile in PCA plot relative to control cornea” value was “nearest to the normal cornea”. Moreover, in assay [3] (rat cornea, RNA-seq normalized counts, 14 days after injury), the “Cdkn2a gene expression (p16INK4a)” value is “decrease”. For the same compound, the “IFNγ-triggered Ace2 activation” value in assay [4] was “markedly attenuated; also recorded: suppressed”. In addition, the Cdkn2a activation result in assay [5] is “decrease”. Besides, in assay [6], the “IFNγ-stimulated Alexa 594-RBD binding” value is reported as “decrease; also recorded: attenuated”.

Source of the values: patent US20240041813A1, “VERY-LONG-CHAIN POLYUNSATURATED FATTY ACIDS, ELOVANOID HYDROXYLATED DERIVATIVES, AND METHODS OF USE” (priority 2020, published 2024).
